Experiments:
[1] = biological target: T1, recombinant BACE1 protein (Homo sapiens, UniProt P56817); test: BACE1 biochemical FRET based assay; settings: 450 min at room temperature; for IC50: pH 5.0, read-out: Biochemical FRET based assay pIC50 (converted)
T1 construct: recombinant BACE1 protein in a final concentration of 0.04 μg/ml
Excerpt: (§1) This assay is a Fluorescence Resonance Energy Transfer Assay (FRET) based assay. The substrate for this assay is an APP derived 13 amino acids peptide that contains the ‘Swedish’ Lys-Met/Asn-Leu mutation of the amyloid precursor protein (APP) beta-secretase cleavage site. This substrate also contains two fluorophores: (7-methoxycoumarin-4-yl) acetic acid (Mca) is a fluorescent donor with excitation wavelength at 320 nm and emission at 405 nm and 2,4-Dinitrophenyl (Dnp) is a proprietary quencher acceptor. […] Upon cleavage by BACE1, the fluorophore Mca is separated from the quenching group Dnp, restoring the full fluorescence yield of the donor. The increase in fluorescence is linearly related to the rate of proteolysis.
Briefly in a 384-well format recombinant BACE1 protein in a final concentration of 0.04 μg/ml is incubated for 450 minutes at room temperature with 20 μM substrate in incubation buffer (50 mM Citrate buffer pH 5.0, 0.05% PEG) in the presence of compound or DMSO. Next the amount of proteolysis is directly measured by fluorescence measurement (excitation at 320 nm and emission at 405 nm) at different incubation times (0, 30, 60, 90, 120 and 450 min). For every experiment a time curve (every 30 min between 0 min and 120 min) is used to determine the time where we find the lowest basal signal of the high control. The signal at this time (Tx) is used to subtract from the signal at 450 min. Results are expressed in RFU, as difference between T450 and Tx.
(§2) A best-fit curve is fitted by a minimum sum of squares method to the plot of % Controlmin versus compound concentration. From this an IC50 value (inhibitory concentration causing 50% inhibition of activity) can be obtained.

[2] = biological target: T2, recombinant BACE2 protein (Homo sapiens, UniProt Q9Y5Z0); test: BACE2 biochemical FRET based assay; settings: 450 min at room temperature; for IC50: pH 5.0, read-out: Biochemical FRET based assay pIC50 (converted)
T2 construct: recombinant BACE2 protein in a final concentration of 0.4 μg/ml
T2 sequence (Q9Y5Z0 63-518): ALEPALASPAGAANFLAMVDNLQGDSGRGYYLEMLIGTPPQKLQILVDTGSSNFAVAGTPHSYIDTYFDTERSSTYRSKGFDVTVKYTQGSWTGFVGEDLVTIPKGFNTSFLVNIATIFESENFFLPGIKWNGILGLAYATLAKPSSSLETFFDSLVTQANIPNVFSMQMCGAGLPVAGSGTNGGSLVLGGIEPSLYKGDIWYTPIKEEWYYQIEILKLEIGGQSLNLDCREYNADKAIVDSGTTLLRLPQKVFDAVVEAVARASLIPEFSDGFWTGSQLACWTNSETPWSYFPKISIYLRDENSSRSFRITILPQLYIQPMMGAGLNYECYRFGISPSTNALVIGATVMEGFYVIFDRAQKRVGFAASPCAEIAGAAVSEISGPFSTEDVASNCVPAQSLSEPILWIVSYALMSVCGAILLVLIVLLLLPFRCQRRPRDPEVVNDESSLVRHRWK
Excerpt: as §1, with “assay” for “assay is an APP derived 13 amino acids peptide that”, “the beta-secretase,” for “BACE1,”
Briefly in a 384-well format recombinant BACE2 protein in a final concentration of 0.4 μg/ml is incubated for 450 minutes at room temperature with […] substrate in incubation buffer (50 mM Citrate buffer pH 5.0, 0.05% PEG, no DMSO) in the absence or presence of compound. Next the amount of proteolysis is directly measured by fluorescence measurement at T=0 and T=450 (excitation at 320 nm and emission at 405 nm). Results are expressed in RFU (Relative Fluorescence Units), as difference between T450 and TO.
as §2

[3] = tested on: Abeta 1-42 produced and secreted by human neuroblastoma SKNBE2 cells expressing hAPP695; test: Cellular αLisa assay in SKNBE2 cells, Abeta 1-42; assay type: cell-based; settings: 18 hours incubation; for IC50: Homo sapiens, SKNBE2, 18 h, read-out: Cellular αLisa assay in SKNBE2 cells Abeta 42 pIC50 (converted)
Procedure: (§3) Cellular αLisa Assay in Sknbe2 Cells In two αLisa assays the levels of Abeta total and Abeta 1-42 produced and secreted into the medium of human neuroblastoma SKNBE2 cells are quantified. The assay is based on the human neuroblastoma SKNBE2 expressing the wild type Amyloid Precursor Protein (hAPP695). The compounds are diluted and added to these cells, incubated for 18 hours and then measurements of Abeta 1-42 and Abeta total are taken. Abeta total and Abeta 1-42 are measured by sandwich αLisa. αLisa is a sandwich assay using biotinylated antibody AbN/25 attached to streptavidin coated beads and antibody Ab4G8 or cAb42/26 conjugated acceptor beads for the detection of Abeta total and Abeta 1-42 respectively. In the presence of Abeta total or Abeta 1-42, the beads come into close proximity. The excitation of the donor beads provokes the release of singlet oxygen molecules that trigger a cascade of energy transfer in the acceptor beads, resulting in light emission. Light emission is measured after 1 hour incubation (excitation at […] and emission at 615 nm).
as §2

[4] = tested on: Abeta total produced and secreted by human neuroblastoma SKNBE2 cells expressing hAPP695; test: Cellular αLisa assay in SKNBE2 cells, Abeta total; assay type: cell-based; settings: 18 hours incubation, read-out: Cellular αLisa assay in SKNBE2 cells Abeta total pIC50 (converted)
Procedure: as §3, §2

β-secretase I (BACE1) = β-secretase I (BACE1) (Homo sapiens, UniProt P56817); test: Automated (CyclOps) biochemical assay BACE1
β-secretase I (BACE1), sequence (P56817 46-501): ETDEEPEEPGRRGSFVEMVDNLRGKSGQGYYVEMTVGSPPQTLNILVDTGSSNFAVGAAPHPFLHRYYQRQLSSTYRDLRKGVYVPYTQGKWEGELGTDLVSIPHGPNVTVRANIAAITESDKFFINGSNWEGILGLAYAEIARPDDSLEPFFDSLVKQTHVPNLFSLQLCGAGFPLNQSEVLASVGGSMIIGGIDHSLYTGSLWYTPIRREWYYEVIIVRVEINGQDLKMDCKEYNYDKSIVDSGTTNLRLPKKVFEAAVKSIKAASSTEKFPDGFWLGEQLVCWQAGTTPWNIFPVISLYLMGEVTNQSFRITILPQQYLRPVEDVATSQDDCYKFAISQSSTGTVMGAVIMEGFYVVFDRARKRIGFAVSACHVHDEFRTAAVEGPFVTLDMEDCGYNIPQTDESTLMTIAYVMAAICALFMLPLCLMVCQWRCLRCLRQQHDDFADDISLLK

β-secretase II (BACE2) = biological target: T3, β-secretase II (BACE2) (Homo sapiens, UniProt Q9Y5Z0); test: Automated (CyclOps) biochemical assay BACE2
T3 sequence (Q9Y5Z0 63-518): T2 sequence (Q9Y5Z0 63-518)

T1 sequence (P56817 46-501): as above

Biochemical FRET based assay pIC50 ([1]; pH 5.0) | Biochemical FRET based assay pIC50 ([2]; pH 5.0) | IC50 [3] | IC50 [1] | IC50 [4] | IC50 [2] | IC50 (β-secretase I (BACE1)) | IC50 (β-secretase II (BACE2)) | Cellular αLisa assay in SKNBE2 cells Abeta 42 pIC50 [3] | SMILES
7.12 | 6.77 | 9.55 nM |  |  |  |  |  |  | COc1ncc(C(=O)NC2CC2)c2c1C[C@]1(c3ccc(F)cc3F)N=C(N)SC[C@@H]1C2 [Compound 1]
 |  | 19.1 nM | 66.1 nM | 22.9 nM | 166 nM | 39.8 nM | 72.4 nM |  | COc1ncc(C(=O)NC2CC2)c2c1C[C@]1(c3ccc(F)cc3F)N=C(N)SC[C@@H]1C2 [Compound 1a]
 |  | 47.9 nM | 219 nM |  | 1510 nM |  |  |  | COc1ncc(C(=O)N2CCOCC2)c2c1C[C@]1(c3ccc(F)cc3F)N=C(N)SC[C@@H]1C2 [Compound 2]
 |  | 46.8 nM | 240 nM | 50.1 nM | 1450 nM | 57.5 nM | 324 nM |  | COc1ncc(C(=O)N2CCOCC2)c2c1CC1(c3ccc(F)cc3F)N=C(N)SCC1C2 (stereo not shown) [Compound 2a]
 |  | 56.2 nM | 75.9 nM |  | 282 nM |  |  |  | COc1ncc(C(=O)Nc2cccnc2)c2c1C[C@]1(c3ccc(F)cc3F)N=C(N)SC[C@@H]1C2 [Compound 3]
 |  | 85.1 nM | 129 nM |  | 1100 nM | 34.7 nM | 355 nM |  | COc1ncc(C(=O)N2CCC(C#N)CC2)c2c1C[C@]1(c3ccc(F)cc3F)N=C(N)SC[C@@H]1C2 [Compound 22]
 |  | 28.8 nM | 20.4 nM |  | 977 nM |  |  |  | COc1ncc(C(=O)N2CCC(c3ccncc3)C2)c2c1C[C@]1(c3ccc(F)cc3F)N=C(N)SC[C@@H]1C2 (stereo partly shown) [Compound 28]
 |  |  | 29.5 nM |  | 355 nM |  |  | 7.31 | COc1ncc(CNC(=O)c2ccncc2)c2c1C[C@]1(c3ccc(F)cc3F)N=C(N)SC[C@@H]1C2 [Compound 30]
 |  |  | 66.1 nM | 81.3 nM | 692 nM | 41.7 nM | 468 nM | 7 | COc1ncc(CNC(=O)c2ccncc2)c2c1C[C@]1(c3ccc(F)cc3F)N=C(N)SC[C@@H]1C2 [Compound 30a]
 |  | 33.1 nM | 81.3 nM |  | 105 nM |  |  |  | COc1ncc(CNC(=O)C2CC2)c2c1C[C@]1(c3ccc(F)cc3F)N=C(N)SC[C@@H]1C2 [Compound 31]
 |  |  | 112 nM | 43.7 nM | 126 nM | 70.8 nM | 87.1 nM | 7.39 | COc1ncc(CNC(=O)C2CC2)c2c1C[C@]1(c3ccc(F)cc3F)N=C(N)SC[C@@H]1C2 [Compound 31a]
 |  |  | 110 nM |  | 309 nM |  |  | 7.41 | COc1ncc(CNC(=O)c2cc(C)no2)c2c1C[C@]1(c3ccc(F)cc3F)N=C(N)SC[C@@H]1C2 [Compound 32]
 |  |  | 182 nM | 95.5 nM | 589 nM | 63.1 nM | 174 nM | 7.07 | COc1ncc(CNC(=O)c2cc(C)no2)c2c1C[C@]1(c3ccc(F)cc3F)N=C(N)SC[C@@H]1C2 [Compound 32a]
 |  | 16.6 nM | 21.9 nM |  | 200 nM | 12.2 nM | 72.4 nM |  | COc1ncc(CNC(=O)c2nccnc2Cl)c2c1C[C@]1(c3ccc(F)cc3F)N=C(N)SC[C@@H]1C2 [Compound 48]
